Series [1] concerns human hepatocytes. Description: In vitro metabolic stability in human hepatocytes. Type of series: in vitro ADME. The settings on record: 1 μM, 37° C., up to 60 min. As for the experimental part: The linear or macrocyclic compounds 1-8, 11-14 and 23-26 (SEQ ID NOs: 1-8, 11-14 and 23-26) were incubated in concentration 1 μM with pooled cryopreserved human hepatocytes (mixed gender; 400 pl, 1.0 million viable cells/ml) for different time points (0, 20, 40 or 60 min) at 37° C. The cell density and viability were determined by trypan blue is exclusion method. The incubation was terminated by acetonitrile. The collected samples were centrifuged for 20 min at 2272×g and analyzed. The samples were analyzed by UPLC/PDA with high resolution mass spectrometry (QE-Orbitrap-MS on DDI mode) to monitor disappearance of the compound. Verapramil 1 μM was used as a disappearance rate control. The analytical method was optimized by using the parent compounds for optimum chromatographic properties (peak shape and retention) and mass spectrometric ionization. The Ion chromatograms were extracted from the total ion chromatograms using calculated monoisotopic accurate masses with 5 mDa window. Disappearance was based on LC/MS peak areas, marking 0 min as 100%. The first-order rate constants k (min-1) of the metabolism were obtained from the slope of time versus logarithm (% of remaining compound) plot using Excel software. The in vitro half-life (t1/2) of study compound is defined as: t1/2In2/k. Calculated half-life is based on compound disappearance in human liver hepatocytes.

Series [2] is described as follows: In vitro metabolic stability in rat plasma. Type of series: in vitro ADME. The settings on record: 1 μM, 37° C., up to 120 min. The procedure:
The linear and macrocyclic compounds 1-14 and 23-26 (SEQ ID NOs: 1-14 and 23-26) were incubated in concentration 1 μM with rat plasma (Sprague-Dawley, male; 400 μl) for different time points (0, 20, 40, 60 or 120 min) at 37° C. The incubation was terminated by acetonitrile. The collected samples were centrifuged for 20 min at 2272×g and analyzed. io Stock solutions were prepared using 50% DMSO, and the compounds were spiked 1/100 to incubation to have final DMSO content of 0.5%. The samples were analyzed by UHPLC/PDA with high resolution mass spectrometry (QE-Orbitrap-MS on DDI mode) to monitor disappearance of the compound. Enalapril 1 μM was used as a disappearance rate control. For analysis of compounds 9, 10, 13 and 14 stock solutions were prepared with PBS, and samples were analyzed by UHPLC-ToF mass spectrometry. The analytical method was optimized by using the parent compounds for optimum chromatographic properties (peak shape and retention) and mass spectrometric ionization. The ion chromatograms were extracted from the total ion chromatograms using calculated monoisotopic accurate masses with 5 mDa window. Disappearance was based on LC/MS peak areas, marking 0 min as 100%.
The first-order rate constants k (min-1) of the metabolism were obtained from the slope of time versus logarithm (% of remaining compound) plot using Excel software. The in vitro half-life (t1/2) of study compound is defined as: t1/2=In2/k. Calculated half-life is based on compound disappearance from rat plasma.

In series [3] the test system is 3D in vitro model of blood-brain barrier. Description: Permeation in a 3D in vitro model of blood-brain barrier. Type of series: in vitro ADME, human endothelial cells, rat astrocytes and cortical neurons. As to conditions: 500 nM, 2 h. The procedure: Due to the interest of developing CDNF- and MANF-derived peptides for treatment of CNS diseases with peripheral route of administration, and the fact that macrocyclization can improve cell-penetration and distribution properties of peptides, the ability of the compounds to pass the blood-brain barrier was tested in an established in vitro model of the blood-brain barrier. For this purpose, macrocyclic and linear compounds were incubated at 500 nM for 2 h in a two-compartment in vitro blood-brain barrier model (n=4) followed by sample collection is and LC-MS/MS analysis.
Primary culture of astrocytes. Rat astrocytes were prepared from a E15 embryos. Briefly, pregnant female rats (Wistar, Janvier Labs) of 15 days of gestation were deeply anesthetized in a (CO2 chamber) and then killed by cervical dislocation. Fetuses were collected and immediately placed in ice-cold L15 Leibovitz medium with a 2% penicillin (10,000 U/mL) and streptomycin (10 mg/mL) solution (PS) and 1% bovine serum albumin (BSA). Full brains were treated for 20 min at 37° C. with a trypsin- EDTA solution at a final concentration of 0.05% trypsin and 0.02% EDTA. Dissociated cells were cultured in DMEM 10% fetal calf serum. Purified astrocytes were used at passage 4 (P4).
Culture of human endothelial cells. A vial of HBMEC (Primary Human Brain Microvascular Endothelial Cells, ACBRI 376) was used at a specific passage 8 (P8).
Primary culture of cortical neurons. Rat cortical neurons were cultured as described by Callizot et al., 2013 with modification. Briefly, pregnant female rats (Wistar, Janvier Labs) of […] were deeply anesthetized in a CO2 chamber and then killed by cervical io dislocation. Fetuses were collected and immediately placed in ice-cold L15 Leibovitz medium with a 2% penicillin (10,000 U/mL) and streptomycin (10 mg/mL) solution (PS) and 1% bovine serum albumin (BSA). Cortices were treated for 20 min at 37° C. with a trypsin-EDTA solution at a final concentration of 0.05% trypsin and 0.02% EDTA. The dissociation was stopped by addition of Dulbecco's modified Eagle's medium (DMEM) with 4.5 g/L of glucose, containing is DNAse I grade II (final concentration 0.5 mg/m L) and 10% fetal calf serum (FCS). Cells were mechanically dissociated by three forced passages through the tip of a 10-m1 pipette. Cells were then centrifuged at 515×g for 10 min at 4° C. The pellet resuspended in a defined culture medium consisting of Neurobasal medium with a 2% solution of B27 supplement, 2 mmol/L of L-glutamine, 2% of PS solution, 10 ng/mL of brain-derived neurotrophic factor (BDNF). Viable cells were counted in a Neubauer cytometer, using the trypan blue exclusion test. The cortical neurons were seeded in the bottom of well pre-coated with poly-L-lysine at a density of 255,000 per well in 24-well plate with insert and cultured at 37° C. in an air (95%)-CO2 (5%) incubator. The culture medium was changed every other day.
Co-Culture of endothelial cells, astrocytes and primary cortical neurons. The procedure was performed as previously published (Xue et al., 2013 with modifications, Callizot et al., 2017). Briefly, on day 0, purified astrocytes (P4) were rapidly thawed in a water bath at 37° C. The cells were immediately put in DMEM containing 10% of FCS. Cell suspension was centrifuged at 515×g for 5 min at 4° C. and the pellets were suspended in DMEM F12 containing 10% of FCS. Cells were seeded in the outer side of the insert membrane (PET, 1 μm) at the density of 45,000 cells per insert and cultured at 37° C. in an air (95%)-CO2 (5%) incubator. Thirty-six (36) hours after the astrocytes seeding, HBMEC (P8) were rapidly thawed in a water bath at 37° C. and immediately put in DMEM containing 10% of FCS. Cell suspension was centrifuged at 515×g for 5 min at 4° C. and the pellets were suspended in EGM-2 bullet kit containing 5% of FCS, 1% of PS solution, 1.4 μM of Hydrocortisone, 5 μg/mL of acid ascorbic, 1% of lipid mixture, 10 mM of HEPES, 1 ng/mL of bFGF. […]

In series [4] the test system is rat hepatocytes. Description: In vitro metabolic stability in rat hepatocytes. Type of series: in vitro ADME. The settings on record: 1 μM, 37° C., up to 60 min. The procedure:
The linear or macrocyclic compounds 1-14 and 23-26 (SEQ ID NOs: […]) were incubated in concentration 1 μM with pooled cryopreserved rat hepatocytes (Sprague-Dawley, male; 400 pl, 1.0 million viable cells/ml for compounds 1-8, 11-12 and 23-26 or 100 μl, 0.1 million viable cells/ml for compounds 9-10 and 13-14) for different time points (0, 10, 20, 40 or 60 min) at 37° C. The cell density and viability were determined by trypan blue exclusion method. The incubation was terminated by acetonitrile. The collected samples were centrifuged for 20 min at 2272×g and analyzed. The samples were analyzed is by UHPLC/PDA with high resolution mass spectrometry (QE-Orbitrap-MS on DDI mode) (compounds 1-8, 11-12 and 23-26) or HHPLC-ToF mass spectrometry (for compounds 9-and 13-14) to monitor disappearance of the compound. Verapramil 1 μM was used as a disappearance rate control. The analytical method was optimized by using the parent compounds for optimum chromatographic properties (peak shape and retention) and mass spectrometric ionization. The Ion chromatograms were extracted from the total ion chromatograms using calculated monoisotopic accurate masses with 5 mDa window. Disappearance was based on LC/MS peak areas, marking 0 min as 100%. The first-order rate constants k (min-1) of the metabolism were obtained from the slope of time versus logarithm (% of remaining compound) plot using Excel software. The in vitro half-life (t1/2) of study compound is defined as: t1/2In2/k. Calculated half-life is based on compound disappearance in rat liver hepatocytes.

Bridge positions count the residues as written; N and C are the ends. Peptide text beside a SMILES is read from it.

Turning to `CC[C@H](C)[C@@H]1NC(=O)[C@H](CCCCN)NC(=O)[C@H](CCCCN)NC(=O)[C@H](CC(C)C)NC(=O)[C@H](CCC(=O)O)NC(=O)[C@H](CCCCN)NC(=O)[C@H](C(C)C)NC(=O)[C@H](CCCNC(=N)N)NC(=O)[C@H](CC(C)C)NC(=O)[C@H](CCCCN)NC(=O)[C@H](CCCCN)NC(=O)[C@H](CC(C)C)NC(=O)[C@H](CC(=O)O)NC(=O)[C@H](C(C)C)NC(=O)[C@H](CCC(=O)O)NC(=O)[C@H](C)NC(=O)[C@@H]2CSSC[C@H](NC(=O)[C@H]([C@@H](C)O)NC(=O)[C@H](CCC(=O)O)NC(=O)CNC(=O)[C@H](Cc3c[nH]c4ccccc34)NC(=O)[C@H](CC(=O)O)NC(=O)[C@H](CC(=O)O)NC(=O)[C@H](CC(C)C)NC1=O)C(=O)N[C@@H](CCCCN)C(=O)NCC(=O)N2` [Compound 4] (cyclo(AEVDLKKLRVKELKKILDDWGETCKGC); disulfide 24-27), in series [1], the “stability in human hepatocytes as compared to linear counterpart” value is recorded as “significantly improved stability”. The “stability in rat plasma as compared to linear counterpart” value in series [2] was “improved stability”. Further, the “ability to pass through the in vitro blood-brain barrier as compared to linear counterpart” value in series [3] was “improved ability to pass”. In addition, the “stability in rat hepatocytes as compared to linear counterpart” value in series [4] is “significantly improved stability”.
